The record followed here is patent US20230111310A1, “CARBOXYLIC ACID DERIVATIVE-SUBSTITUTED IMINO ARYL COMPOUND, PREPARATION METHOD THEREFOR, HERBICIDAL COMPOSITION AND USE THEREOF” (Qingdao Kingagroot Chemical Compound Co., Ltd., priority 2020, published 2023).

The structures appear in SMILES notation.

What all share (format): in vivo
In assay [1] the test system is Lolium multiflorum Lamk. Description: Composition activity test, soil sealing treatment. Particulars: B 300 g a.i./ha. The protocol:
(§1) are as follows, and the others were purchased from reagent companies. The technical materials were all dissolved in acetone and diluted with an aqueous solution containing 0.1% emulsifier Tween-80. The dilution is performed as required.
(§2) Weeds are cultivated in a controllable sunlight greenhouse at 20 to 30° C., in natural light, and relative humidity of 57% to 72%. […] The test soil was placed quantitatively to 3/4 of the pots and then watered from the bottom of the pots to completely wet the soil to saturation. The test weed seeds were germinated, and uniformly and quantitatively sowed on the surface, then covered with 0.5-2 cm soil according to the seed size, and ready-for use 72 hours after sowing.
(§3) 3 pots with 30 weed seeds per pot were treated in one treatment with 4 replications per treatment.
(§4) The well-sowed weeds were evenly placed on a platform with an area of 0.5 m^2, and a solution of agents was sprayed on the soil thereof by the 3WP-2000-type walking spray tower at a dosage of 450 kg/ha and at a spray pressure of 0.3 MPa. After all the solution was sprayed, the valve was closed. After 30 seconds, the door of the spray tower was opened, and the nutritional bowl was taken out. Then the valve was opened, and the spray tube was cleaned by spraying 50 ml of water.
(§5) A method for investigating absolute number was employed, wherein whole seedlings of survival weeds were cut off with a blade along the soil surface, and the fresh weight of the weeds was weighed with an analytical balance. For dead weeds, the fresh weight thereof was zero.
(§6) The investigation was performed after 21 days of the treatment for only once.
(§7) An optimum ratio of the two active ingredients was determined by the actual control effect, characteristics of herbicides, and balance of a corresponding formula. Wherein, in the formula, X represented the fresh weight inhibition rate of the active ingredient A in a dosage of P, and Y represented the fresh weight inhibition rate of the active ingredient B in a dosage of Q. The statistical results were shown in the table 6.

In assay [2] the test system is Descurainia sophia. The assay is described as follows: Composition activity test, soil sealing treatment. The protocol:
as §1, §2, §3, §4, §5, §6, §7

Assay [3] has as its system Eleusine indica. Description: Composition activity test, post-emergence foliage spray. As to the method: as §1
(§8) Weeds were cultivated by a pot culture method. […] Full and uniform weed seeds were selected, soaked in warm water at 25° C. for 6 hours, and germinated in a 28° C. biochemical incubator (darkness). The weed seeds that had just germinated were evenly placed on the surface of the soil and then covered with 0.5-1 cm soil according to the sizes of seeds.
(§9) The culture was carried out in a controllable sunlight greenhouse at 20 to 30° C., in natural light, and relative humidity of 57% to 72%.
(§10) 3 pots with 20 weed seeds per pot were treated in one treatment with 4 replications per treatment.
(§11) The agents were used for only once in the experiment. In the stage of weeds with 1.5-2 leaves, the weeds were thinned out to maintain 10 weeds per pot and 30 weeds for each treatment, then continued to be cultured to Conyza Canadensis 10 cm in height, other weeds 3-4 leaves stage and treated.
(§12) The well-cultured weeds were evenly placed on a platform with an area of 0.5 m^2, and a solution of agents was sprayed on the stems and leaves thereof by the 3WP-2000-type walking spray tower at a dosage of 450 kg/ha and at a spray pressure of 0.3 MPa. After all the solution was sprayed, the valve was closed. After 30 seconds, the door of the spray tower was opened, and the nutritional bowl was taken out. Then the valve was opened, and the spray tube was cleaned by spraying 50 ml of water. After the treatment, the weeds were routinely cultured in a greenhouse.
as §5, §6, §7

In assay [4] the test system is Leptochloa chinensis. Description: Composition activity test, soil sealing treatment. As to the method:
as §1, §2, §3, §4, §5, §6, §7

For assay [5], the system named is Eriochloa villosa. The assay is described as follows: Composition activity test, post-emergence foliage spray. The protocol: as §1, §8, §9, §10, §11, §12, §5, §6, §7
For assay [6], the system named is Capsella bursa-pastoris. Described as above. The protocol: as §1, §8, §9, §10, §11, §12, §5, §6, §7
The subject of assay [7] is Conyza Canadensis. The assay is described as above. The protocol:
as §1, §8, §9, §10, §11, §12, §5, §6, §7

Assay [8] concerns Cyperus difformis. The description is as above. As to the method:
as §1, §8, §9, §10, §11, §12, §5, §6, §7

Assay [9] concerns Cyperus serotinus. The description is as above. As to the method:
as §1, §8, §9, §10, §11, §12, §5, §6, §7

Assay [10] deals with Amaranthus retroflexus. Description: Composition activity test, soil sealing treatment. The protocol:
as §1, §2, §3, §4, §5, §6, §7

Assay [11] has as its system Echinochloa caudata Roshev. The assay is described as follows: Composition activity test, post-emergence foliage spray. As to the method: as §1, §8, §9, §10, §11, §12, §5, §6, §7
The subject of assay [12] is Echinochloa crusgalli. The assay is described as follows: Composition activity test, soil sealing treatment. Particulars: B 600 g a.i./ha. The protocol:
as §1, §2, §3, §4, §5, §6, §7

Turning to `Cc1ccccc1CO[C@@H]1C[C@@]2(C(C)C)CC[C@]1(C)O2` (racemic) [cinmethylin], the “Control effect (%) of B applied alone (B)” value (“Control effect (%)” below) in [1] is recorded as 33.7%. As to `COP(=S)(OC)SCC(=O)N(c1ccc(Cl)cc1)C(C)(C)C` [anilofos], the “Control effect (%)” value in [2] (B 75 g a.i./ha) was 38.3%. `CC1(C)CON(Cc2ccc(Cl)cc2Cl)C1=O` [bixlozone]: the “Control effect (%)” value in assay [3] (B 180 g a.i./ha) turned out to be 36.7%. Turning to `CCCCOCN(C(=O)CCl)c1c(CC)cccc1CC` [butachlor], the “Control effect (%)” value in assay [2] (B 225 g a.i./ha) is recorded as 42.2%. `CCC(C)Nc1c([N+](=O)[O-])cc(C(C)(C)C)cc1[N+](=O)[O-]` (stereo not shown) [butralin]: the “Control effect (%)” value in [4] (B 180 g a.i./ha) worked out at 47.4%. With `CCSC(C)CC1CC(=O)C(/C(CC)=N/OC/C=C/Cl)=C(O)C1` (stereo not shown) [clethodim], the “Control effect (%)” value in assay [5] (B 30 g a.i./ha) turned out to be 35.5%. Turning to `CC1(C)CON(Cc2ccccc2Cl)C1=O` [clomazone], in [3] (B 150 g a.i./ha), the “Control effect (%)” value came to 46.5%. As to `O=C(Nc1ccc(F)cc1F)c1cccnc1Oc1cccc(C(F)(F)F)c1` [diflufenican], in [6] (B 75 g a.i./ha), the “Control effect (%)” value came to 33.1%.

On to `c1cc[n+]2c(c1)-c1cccc[n+]1CC2` [diquat dibromide monohydrate], for which the “Control effect (%)” value in assay [7] (B 300 g a.i./ha) worked out at 37.8%; in assay [8] (B 300 g a.i./ha), 18.4%. As for `CC(C)N(C(=O)COc1nnc(C(F)(F)F)s1)c1ccc(F)cc1` [flufenacet], the “Control effect (%)” value in [2] (B 150 g a.i./ha) amounted to 45.6%. As to `CNC1=C(c2cccc(C(F)(F)F)c2)C(=O)C(c2ccccc2)O1` (stereo not shown) [flurtamone], the “Control effect (%)” value in [6] (B 75 g a.i./ha) worked out at 56.7%. `CP(=O)(O)CCC(N)C(=O)O` (stereo not shown) [glufosinate ammonium]: the “Control effect (%)” value in assay [7] (B 300 g a.i./ha) worked out at 57.8%; in assay [9] (B 300 g a.i./ha) it was 23.1%. As to `CP(=O)(O)CC[C@H](N)C(=O)O.N` [glufosinate-P-ammonium], in assay [9] (B 150 g a.i./ha), the “Control effect (%)” value was 21.4%.

Consider `O=C(O)CNCP(=O)(O)O` [glyphosate], for which the “Control effect (%)” value in [7] (B 450 g a.i./ha) turned out to be 51.2%. Turning to `Cc1ccc2c(c1)[C@H](Nc1nc(N)nc(C(C)F)n1)[C@@H](C)C2` (stereo partly shown) [indaziflam], the “Control effect (%)” value in assay [10] (B 15 g a.i./ha) is reported as 49.3%. For `CS(=O)(=O)c1cc(C(F)(F)F)ccc1C(=O)c1cnoc1C1CC1` [isoxaflutole], in assay [11] (B 15 g a.i./ha), the “Control effect (%)” value amounted to 41.3%.

Turning to `CN(C(=O)COc1nc2ccccc2s1)c1ccccc1` [mefenacet], in assay [2] (B 150 g a.i./ha), the “Control effect (%)” value is on record as 46.4%. Take `C[n+]1ccc(-c2cc[n+](C)cc2)cc1` [paraquat dichloride]: the “Control effect (%)” value in [7] (B 225 g a.i./ha) worked out at 48.4%; in assay [8] (B 150 g a.i./ha), 35.7%. Regarding `CCC(CC)Nc1c([N+](=O)[O-])cc(C)c(C)c1[N+](=O)[O-]` [pendimethalin], the “Control effect (%)” value in assay [4] (B 150 g a.i./ha) was 43.2%.

As for `O=C(Nc1ccc(F)cc1)c1cccc(Oc2cccc(C(F)(F)F)c2)n1` [picolinafen], the “Control effect (%)” value in [6] (B 45 g a.i./ha) was found to be 44.4%. As to `CCCOCCN(C(=O)CCl)c1c(CC)cccc1CC` [pretilachlor], the “Control effect (%)” value in assay [2] (B 180 g a.i./ha) is reported as 51.2%. With `CCCN(CCC)C(=O)SCc1ccccc1` [prosulfocarb], in assay [12], the “Control effect (%)” value was 32.6%. Take `Cn1nc(C(F)(F)F)c(CS(=O)(=O)C2=NOC(C)(C)C2)c1OC(F)F` [pyroxasulfone]: the “Control effect (%)” value in [2] (B 60 g a.i./ha) worked out at 57.6%. Regarding `COC(=O)[C@@H](C)Oc1ccc(Oc2cnc3cc(Cl)ccc3n2)cc1` [quizalofop-P-methyl], in assay [5] (B 15 g a.i./ha), the “Control effect (%)” value is listed as 41.7%.

As for `CCc1cccc(C)c1N(C(=O)CCl)[C@@H](C)COC` [s-metolachlor], the “Control effect (%)” value in assay [2] (B 150 g a.i./ha) was determined as 31.3%. With `CCC/C(=N\OCC)C1=C(O)CC(CC(C)SCC)CC1=O` (stereo not shown) [sethoxydim], the “Control effect (%)” value in assay [5] (B 45 g a.i./ha) was 36.7%.

Turning to `Cc1nn(C)cc1C(=O)Oc1c(C(=O)c2ccc(C(F)(F)F)cc2S(C)(=O)=O)c(C)nn1C` [shuangzuocaotong], the “Control effect (%)” value in assay [11] (B 15 g a.i./ha) worked out at 35.9%. Consider `CS(=O)(=O)c1ccc(C(=O)C2C(=O)CCCC2=O)c(Cl)c1COCC1CCCO1` (stereo not shown) [tefuryltrione], for which the “Control effect (%)” value in assay [11] (B 30 g a.i./ha) is on record as 21.5%. Turning to `CS(=O)(=O)c1ccc(C(=O)C2C(=O)CCCC2=O)c(Cl)c1COCC(F)(F)F` [tembotrione], the “Control effect (%)” value in assay [11] (B 15 g a.i./ha) turned out to be 31.7%. Regarding `Cc1c(C(=O)c2cnn(C)c2O)ccc(S(C)(=O)=O)c1C1=NOCC1` [topramezone], the “Control effect (%)” value in assay [11] (B 7.5 g a.i./ha) was 38.5%. Consider `Cc1cc(C)cc(OCC(C)Nc2nc(N)nc(C(C)(C)F)n2)c1` (stereo not shown) [triaziflam], for which, in assay [10] (B 30 g a.i./ha), the “Control effect (%)” value was determined as 42.1%.
